Measurements taken from PubChem BioAssay (NCI).
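Tested at 5 concentrations; 48 h exposure; 96-well plates; endpoints linearly interpolated, else capped at highest concentration. The concentration for full growth arrest is given as TGI.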

Tests used:
Test in all cases: inhibition of tumour cell growth, NCI panel, 48 h
K-562 leukemia = tested on: K-562 leukemia
786-0 renal = tested on: 786-0 renal
T-47D breast = tested on: T-47D breast
HS 578T breast = tested on: HS 578T breast
SK-MEL-28 melanoma = tested on: SK-MEL-28 melanoma
COLO 205 colon = tested on: COLO 205 colon
OVCAR-4 ovarian = tested on: OVCAR-4 ovarian
MOLT-4 leukemia = tested on: MOLT-4 leukemia
CCRF-CEM leukemia = tested on: CCRF-CEM leukemia
MALME-3M melanoma = tested on: MALME-3M melanoma
EKVX NSCLC = tested on: EKVX NSCLC
SNB-19 CNS = tested on: SNB-19 CNS
SR leukemia = tested on: SR leukemia

| SMILES | TGI (K-562 leukemia) | TGI (786-0 renal) | TGI (T-47D breast) | TGI (HS 578T breast) | TGI (SK-MEL-28 melanoma) | TGI (COLO 205 colon) | TGI (OVCAR-4 ovarian) | TGI (MOLT-4 leukemia) | TGI (CCRF-CEM leukemia) | TGI (MALME-3M melanoma) | TGI (EKVX NSCLC) | TGI (SNB-19 CNS) | TGI (SR leukemia) |
| --- | --- | --- | --- | --- | --- | --- | --- | --- | --- | --- | --- | --- | --- |
| Cc1ccc2c(n1)C(=O)c1ccccc1C2=O | > 84 µM | > 100 µM | > 85 µM | > 100 µM | > 100 µM | 37 µM | 55.4 µM | > 88.7 µM | > 100 µM | 23.2 µM | 96.3 µM | > 87.9 µM | – |
| CC(=O)NC1=C(C)C(=O)c2c(nc3n2CCC3O)C1=N (stereo unspecified) | > 100 µM | 40.4 µM | – | – | 31 µM | 33.4 µM | 14.6 µM | > 100 µM | > 100 µM | 18.8 µM | 37 µM | 50.4 µM | > 100 µM |
| CCC(CC)n1c(C)nc2c1C(=O)c1ccccc1C2=O | > 100 µM | > 100 µM | – | – | > 100 µM | > 100 µM | > 100 µM | > 100 µM | > 100 µM | 73.6 µM | > 100 µM | > 100 µM | > 100 µM |
| COc1ccc(CC2NC(=O)/C=C/CC(C(C)C3OC3c3ccccc3)OC(=O)C(CC(C)C)OC(=O)C(C)CNC2=O)cc1Cl (stereo unspecified) | > 0.0416 µM | > 0.1 µM | – | – | > 0.1 µM | 2.12e-05 µM | > 0.1 µM | – | – | > 0.1 µM | – | > 0.1 µM | – |
| Nc1nc(Cl)cc(Nc2cc(Cl)cc(Cl)c2)n1 | 81.3 µM | 33.7 µM | 98.9 µM | 41.1 µM | – | 41.4 µM | 46.6 µM | 47.6 µM | 51.7 µM | 37.8 µM | 45.7 µM | 47.5 µM | – |
| c1cc2c(c(-c3c4ccccc4nc4ccccc34)c1)CC1(CC2)OCCO1 | > 100 µM | > 100 µM | > 100 µM | – | > 100 µM | > 100 µM | > 100 µM | > 100 µM | – | > 100 µM | > 100 µM | > 100 µM | – |
| C[Si](C)(OCCS(=O)(=O)O)C1S(=O)(=O)OCCOS1(=O)=O | > 100 µM | > 100 µM | > 100 µM | – | > 100 µM | > 100 µM | > 100 µM | > 100 µM | > 100 µM | > 100 µM | > 100 µM | > 100 µM | > 100 µM |
| N/C(=N/n1c(=S)[nH]c2ccccc2c1=O)Nn1c(=S)[nH]c2ccccc2c1=O | 83.6 µM | 34.2 µM | 66.3 µM | – | 72.6 µM | 77.6 µM | > 100 µM | 31 µM | 48.2 µM | 45.6 µM | > 100 µM | > 100 µM | 52 µM |
| N#CC1(C#N)NC(c2ccsc2)C(C#N)(C#N)NC1c1ccsc1 (stereo unspecified) | > 100 µM | > 100 µM | – | > 100 µM | > 100 µM | > 100 µM | > 100 µM | > 100 µM | > 100 µM | > 100 µM | > 100 µM | > 100 µM | > 100 µM |
| COC(=O)/N=[N+](\[O-])C(c1ccc(OC)cc1)C1CCCCC1 (stereo unspecified) | 44.8 µM | 32.4 µM | 40.3 µM | 40.7 µM | 38.7 µM | 3.36 µM | > 100 µM | 31.6 µM | 20.6 µM | 11.8 µM | > 44.1 µM | > 54.2 µM | – |
| NC(=O)N1N=C2c3ccccc3SC[C@H]2[C@@H]1c1ccccc1 | > 100 µM | > 100 µM | – | – | 52.1 µM | 43.4 µM | 73.4 µM | 77.4 µM | 70.7 µM | > 100 µM | > 100 µM | > 100 µM | > 100 µM |
| COc1ccc(C(C#N)NNc2nc(C)cc(=O)[nH]2)cc1OC (stereo unspecified) | > 100 µM | > 100 µM | – | – | > 100 µM | > 100 µM | > 100 µM | > 100 µM | > 100 µM | > 100 µM | – | – | > 100 µM |
| COC(=O)C1C2C=CC(C2)N1[C@@H](C)c1ccccc1 (stereo partly specified) | > 100 µM | > 100 µM | – | – | > 100 µM | > 100 µM | – | – | > 100 µM | > 100 µM | > 100 µM | > 100 µM | > 100 µM |
| CN=S(=O)(c1ccccc1)c1ccccc1 | > 100 µM | > 100 µM | – | – | > 100 µM | > 100 µM | > 100 µM | > 100 µM | > 100 µM | > 100 µM | > 100 µM | > 100 µM | > 100 µM |
| CC(C)C1CC(O)O[C@@H]([C@@H](C)[C@H]2CC(=O)[C@@H]3[C@@H]4[C@@H](O)[C@H](O)[C@H]5[C@@H](O)[C@H](O)CC[C@]5(C)[C@H]4CC[C@]23C)C1 (stereo partly specified) | > 100 µM | > 100 µM | – | – | > 100 µM | > 100 µM | > 100 µM | > 100 µM | > 100 µM | > 100 µM | > 100 µM | > 100 µM | > 100 µM |
